From patent US10952432B2, “Cannabidiol compositions and uses thereof” (PHARMOTECH SA, priority 2016, dated 2021)

Experiments:
[1] = tested on: methicillin-resistant Staphylococcus aureus (MRSA) strains; settings: Appendino et al., 2008; cited from earlier work
CB2 receptors = CB2 receptors (Homo sapiens, UniProt P34972); settings: compared with THC; cited from earlier work
[2] = tested on: Pseudomonas aeruginosa ATCC 27853; test: Biofilm formation, crystal violet staining; assay type: cell-based
Description: Overnight pre-cultures of Pseudomonas aeruginosa ATCC 27853 strain were diluted to an OD600 (optical density measured at a wavelength of 600 nm) of 0.1 in 2 ml of LB (lysogeny broth) medium into polypropylene tubes. […] Planktonic cells were removed by washing once with distilled water and biofilms were stained with crystal violet (CV, 1% in water) for 30 minutes. CV was discarded and tubes were rinsed twice with water to remove excess of dye. The stained biofilms were re-suspended in 33% acetic acid and their density was evaluated by measuring the OD600 of the suspensions normalized for bacterial density.

[3] = tested on: elastase produced by P. aeruginosa PAOW1(PT5); test: Elastase production measured by Elastin Congo Red enzymatic activity; assay type: cell-based, Pseudomonas aeruginosa; settings: CBD 500 μg/ml, overnight culture of wt strain, absorption at 495 nm normalized to cell density
Description: Elastase production was measured in two bacterial strains: Pseudomonas aeruginosa PAOW1(PT5) that is a wild type (wt) and Pseudomonas aeruginosa ΔlasIΔrhlI that is a mutant for quorum sensing signaling that has reduced production/expression of elastase due to the inhibition of the quorum sensing system. […] Insoluble ECR was removed by centrifugation and the absorption of the supernatant was measured at 495 nm and normalized according to cell density.

CB2 receptors, sequence (P34972 whole entry): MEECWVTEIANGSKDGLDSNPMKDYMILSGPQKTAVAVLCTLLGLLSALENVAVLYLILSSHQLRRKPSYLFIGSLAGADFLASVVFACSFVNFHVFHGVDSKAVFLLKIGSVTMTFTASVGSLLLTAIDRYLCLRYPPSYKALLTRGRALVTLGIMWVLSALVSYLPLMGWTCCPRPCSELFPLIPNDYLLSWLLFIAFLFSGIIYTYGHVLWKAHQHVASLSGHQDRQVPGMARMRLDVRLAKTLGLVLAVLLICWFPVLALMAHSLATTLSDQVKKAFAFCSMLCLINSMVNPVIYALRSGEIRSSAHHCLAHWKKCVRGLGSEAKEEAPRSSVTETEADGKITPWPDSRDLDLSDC

Which “activity against a variety of MRSA strains” value [1] does the source give for C=C(C)[C@@H]1CCC(C)=C[C@H]1c1c(O)cc(O)cc1CCCCC [abn-CBD, reference compound] here?
The value was “having activity”.

With C=C(C)[C@@H]1CCC(C)=C[C@H]1c1c(O)cc(CCCCC)cc1O [CBD, 2-[(1R,6R)-6-isopropenyl-3-methylcyclohex-2-en-1-yl]-5-pentylbenzene-1,3-diol] as the compound, how does the “activity against a variety of MRSA strains” value [1] read?
The value was “having activity”.

And the “affinity for CB2 receptors” value (CB2 receptors)?
Its value is “very low affinity”.

What about the “reduction of biofilm formation by a factor, as compared to control without CBD” value ([2]; CBD 1.9 μg/ml to 31.25 μg/ml, 12 h at 37° C., LB medium, OD600 normalized for bacterial density) of the same compound?
Its value is “about 2”.

What about the “inhibitory effect on biofilm formation at higher concentration” value ([2]; higher concentration of CBD (62.5 and 125 μg/ml tested), probably due to reduced solubility in culture medium) of the same compound?
The value was “inhibitory effect on biofilm formation is reduced”.

What about the “reduction of the production of elastase as compared to control” value [3] of the same compound?
Its value is “about 30%”.
